“Also recorded” adds a separate entry of the source. Read-outs that look alike come from different tables or passages of the source.
Columns and labels:
[1] = tested on: SH-SY5Y cells; experiment: Hsp20 phosphorylation assay (western blot, phospho-serine 16); type: cell-based; conditions: for Hsp20 phosphorylation (serine 16): rolipram 10 μM, moexipril, 7, 8 at 50 μM, 0.5, 1, 2 h
Experimental: Compounds were diluted in media and added to cells for 0.5, 1 and 2 h prior to harvesting using 3T3 lysis buffer (1% Triton X-100, 50 mM Hepes, pH 7.2, 10 mM EDTA and 100 mM NaH2PO4) supplemented with protease inhibitor Mini-Complete (Roche) and phosphatase inhibitor PHOS-stop (Roche, UK). Hsp20 expression was analysed using standard SDS-PAGE and Western Blotting techniques using the phospho-Hsp20 antibody (ab58522 Abcam, UK) and alpha-tubulin-HRP antibody (ab40742 Abcam, UK) as the loading control. Western blotting for PDE4s was undertaken using antibodies previously described by us.

[2] = molecular target: T1, PDE4B2 (Homo sapiens, UniProt Q07343); experiment: PDE activity two-step radioassay, PDE4B2 lysate; type: biochemical; conditions: for IC50: PDE4B2 from transfected HEK293 lysate, cAMP hydrolysis, n = 3
T1 construct: expressed in transfected cells; host or cells: HEK293
Experimental: (§1) Expression plasmids encoding human PDE4 were as previously described by us [[27,28]]. The plasmids were purified from Escherichia coli using the Maxi-prep system (Qiagen, UK). For transient transfections, HEK293 cells were seeded at a 1:3 ratio into culture flasks 24 h before transfection so that cells were ~60% confluent by the time of transfection. Transfections were carried out using PolyFect® transfection reagent (Qiagen, UK) in accordance with manufacturer's instructions.
(§2) Samples were then frozen on solid CO2, thawed and then manually homogenised, followed by passage through a 26-gauge needle several times to ensure complete cell lysis. Cells were centrifuged at 13,000 rpm for 10 min to remove any unbroken cells, and the resulting supernatant was frozen in solid CO2 and stored at −80 °C until required. For experimentation, the protein concentration of whole-cell lysate from transfected and mock-transfected (vector only) cells was equalised (typically to 1 μg/μl). Protein concentration was determined through Bradford Assay using bovine serum albumin as standard.
(§3) PDE activity was determined using a two-step radioassay procedure as described previously. Activities for each PDE subtype were related to a non-drug treated sample (100% control) over an increasing dose of the indicated compounds. IC50 values were calculated using.

[3] = tested on: SH-SY5Y cells stably expressing Epac1-camps; experiment: FRET imaging of cAMP with Epac1-camps biosensor; type: cell-based; conditions: added after forskolin 5 μM
Experimental: HEK293 cells were maintained in DMEM containing 10% (v/v) FBS, 2 mM L-glutamine and 1% penicillin/streptomycin. SH-SY5Y cells were maintained in DMEM:F12 (1:1) containing 10% (v/v) FBS, 2 mM L-glutamine and 1% penicillin/streptomycin. For FRET analysis SH-SY5Y cells stably expressing Epac1-camps under G418 selection (500 μg/ml) were seeded onto 22 mm round glass coverslips and maintained in a 6 well plate 24 h prior to use.
FRET imaging experiments were performed on SH-SY5Y-Epac1-camps stables. Cells were maintained at room temperature in DPBS (Invitrogen, UK), with added CaCl2 and MgCl2, and imaged on an inverted microscope (Olympus IX71) with a PlanApoN, 60X, NA 1.42 oil, 0.17/FN 26.5, objective (Japan). The microscope was equipped with a CCD camera (cool SNAP HQ monochrome, Photometrics), and a beam-splitter optical device (Dual-channel simultaneous-imaging system, DV^2 mag biosystem (ET-04-EM)). Imaging acquisition and analysis software used was Meta imaging series 7.1, Metafluor, and processed using ImageJ (http://rsb.info.nih.gov/ij/). FRET changes were measured as changes in the background-subtracted 480/545-nm fluorescence emission intensity on excitation at 430 nm and expressed as either R/R0, where R is the ratio at time t and R0 is the ratio at time = 0 s, or ΔR/R0, where ΔR = R − R0. Values are expressed as the mean ± SEM.

[4] = molecular target: T2, PDE8A (Homo sapiens, UniProt O60658); experiment: PDE activity two-step radioassay, PDE8A lysate; type: biochemical; conditions: dose response, Fig. 3C
T2 construct: expressed in transfected cells; host or cells: HEK293
Experimental: as §2, with “Cells (~90–100% confluent) were transfected for 48 h with cDNA encoding PDE4B2, PDE4A5, PDE4D5, PDE8A and PDE5, washed with PBS and harvested by using a cell scraper in KHEM buffer (50 mM KCl, 50 mM HEPES; pH 7.2, 10 mM EGTA, 1.92 mM MgCl2, 1 mM dithiothreitol (DTT)) supplemented with protease inhibitor Mini-Complete (Roche, UK). Samples” for “Samples”
as §3, with “using. In all cases, the transfected PDE accounted for over 97% of the total PDE activity when compared with the untransfected control lysates.” for “using.”

[5] = molecular target: T3, PDE5 (Homo sapiens, UniProt O76074); experiment: PDE activity two-step radioassay, PDE5 lysate; type: biochemical; conditions: dose response, Fig. 3C
T3 construct: expressed in transfected cells; host or cells: HEK293
Experimental: as §2, with “Cells (~90–100% confluent) were transfected for 48 h with cDNA encoding PDE4B2, PDE4A5, PDE4D5, PDE8A and PDE5, washed with PBS and harvested by using a cell scraper in KHEM buffer (50 mM KCl, 50 mM HEPES; pH 7.2, 10 mM EGTA, 1.92 mM MgCl2, 1 mM dithiothreitol (DTT)) supplemented with protease inhibitor Mini-Complete (Roche, UK). Samples” for “Samples”
as §3, with “using. In all cases, the transfected PDE accounted for over 97% of the total PDE activity when compared with the untransfected control lysates.” for “using.”

[6] = molecular target: T4, PDE4D5 (Homo sapiens, UniProt Q08499); experiment: PDE activity two-step radioassay, PDE4D5 lysate; type: biochemical
T4 construct: expressed in transfected cells; host or cells: HEK293
Experimental: as §1
Cells (~90–100% confluent) were transfected for 48 h with cDNA encoding PDE4B2, PDE4A5, PDE4D5, PDE8A and PDE5, washed with PBS and harvested by using a cell scraper in KHEM buffer (50 mM KCl, 50 mM HEPES; pH 7.2, 10 mM EGTA, 1.92 mM MgCl2, 1 mM dithiothreitol (DTT)) supplemented with protease inhibitor Mini-Complete (Roche, UK). Samples were then frozen on solid CO2, thawed and then manually homogenised, followed by passage through a 26-gauge needle several times to ensure complete cell lysis. Cells were centrifuged at 13,000 rpm for 10 min to remove any unbroken cells, and the resulting supernatant was frozen in solid CO2 and stored at −80 °C until required. […] Protein concentration was determined through Bradford Assay using bovine serum albumin as standard.
PDE activity was determined using a two-step radioassay procedure as described previously. […] IC50 values were calculated using. […]

[7] = Colloidal aggregation by dynamic light scattering; type: physicochemical
[8] = parameters: method as in PMID 3508548, PMID 2999531; conditions: use in hypertension; cited from earlier work
[9] = molecular target: beta-lactamase (Escherichia coli, UniProt P00811); experiment: beta-lactamase inhibition (aggregation counter-screen); type: biochemical; conditions: at 10 or 100 μM
[10] = tested on: porcine serum ACE; parameters: method as in PMID 3508548, PMID 2999531; conditions: vs porcine serum ACE; cited from earlier work
[11] = parameters: method as in printed; conditions: oral dose of 15 mg, ref not given, cited from earlier work
[12] = cited from earlier work; for brain uptake: ref not given

T1 sequence (Q07343 1-564 isoform Q07343-2): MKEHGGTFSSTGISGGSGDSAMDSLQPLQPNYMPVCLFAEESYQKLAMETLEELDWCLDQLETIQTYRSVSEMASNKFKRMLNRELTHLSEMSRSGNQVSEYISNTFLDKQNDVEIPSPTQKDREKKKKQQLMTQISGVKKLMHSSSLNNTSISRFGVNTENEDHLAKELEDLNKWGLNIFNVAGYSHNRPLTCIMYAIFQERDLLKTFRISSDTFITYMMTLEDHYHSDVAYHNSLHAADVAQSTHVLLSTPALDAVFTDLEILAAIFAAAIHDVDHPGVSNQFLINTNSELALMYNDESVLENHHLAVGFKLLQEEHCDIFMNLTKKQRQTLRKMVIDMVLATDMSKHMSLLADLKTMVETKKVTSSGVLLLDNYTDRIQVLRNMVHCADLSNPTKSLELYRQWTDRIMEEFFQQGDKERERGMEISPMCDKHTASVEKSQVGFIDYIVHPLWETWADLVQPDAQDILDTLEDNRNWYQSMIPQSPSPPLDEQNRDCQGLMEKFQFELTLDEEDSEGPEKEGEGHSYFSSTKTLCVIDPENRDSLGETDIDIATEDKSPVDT
T4 sequence (Q08499 1-745 isoform Q08499-6): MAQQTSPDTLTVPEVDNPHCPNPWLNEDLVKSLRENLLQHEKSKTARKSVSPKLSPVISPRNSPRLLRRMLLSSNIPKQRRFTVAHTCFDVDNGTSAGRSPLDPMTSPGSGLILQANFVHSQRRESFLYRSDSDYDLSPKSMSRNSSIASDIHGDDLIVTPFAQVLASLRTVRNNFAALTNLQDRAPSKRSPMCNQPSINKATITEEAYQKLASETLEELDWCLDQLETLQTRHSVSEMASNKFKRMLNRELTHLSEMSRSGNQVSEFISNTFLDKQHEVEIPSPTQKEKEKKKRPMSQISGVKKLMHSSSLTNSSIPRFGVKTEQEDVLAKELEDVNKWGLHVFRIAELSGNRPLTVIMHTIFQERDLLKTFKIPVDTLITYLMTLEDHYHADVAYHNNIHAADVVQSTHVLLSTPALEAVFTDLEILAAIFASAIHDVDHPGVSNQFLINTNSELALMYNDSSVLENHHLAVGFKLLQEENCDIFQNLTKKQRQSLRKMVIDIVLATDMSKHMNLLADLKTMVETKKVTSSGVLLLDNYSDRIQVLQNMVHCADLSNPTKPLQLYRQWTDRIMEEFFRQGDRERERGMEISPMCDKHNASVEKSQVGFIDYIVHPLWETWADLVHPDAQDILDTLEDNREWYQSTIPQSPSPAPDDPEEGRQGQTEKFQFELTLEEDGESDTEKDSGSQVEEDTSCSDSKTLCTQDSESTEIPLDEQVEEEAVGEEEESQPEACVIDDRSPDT
T2 sequence (O60658 whole entry, species assumed): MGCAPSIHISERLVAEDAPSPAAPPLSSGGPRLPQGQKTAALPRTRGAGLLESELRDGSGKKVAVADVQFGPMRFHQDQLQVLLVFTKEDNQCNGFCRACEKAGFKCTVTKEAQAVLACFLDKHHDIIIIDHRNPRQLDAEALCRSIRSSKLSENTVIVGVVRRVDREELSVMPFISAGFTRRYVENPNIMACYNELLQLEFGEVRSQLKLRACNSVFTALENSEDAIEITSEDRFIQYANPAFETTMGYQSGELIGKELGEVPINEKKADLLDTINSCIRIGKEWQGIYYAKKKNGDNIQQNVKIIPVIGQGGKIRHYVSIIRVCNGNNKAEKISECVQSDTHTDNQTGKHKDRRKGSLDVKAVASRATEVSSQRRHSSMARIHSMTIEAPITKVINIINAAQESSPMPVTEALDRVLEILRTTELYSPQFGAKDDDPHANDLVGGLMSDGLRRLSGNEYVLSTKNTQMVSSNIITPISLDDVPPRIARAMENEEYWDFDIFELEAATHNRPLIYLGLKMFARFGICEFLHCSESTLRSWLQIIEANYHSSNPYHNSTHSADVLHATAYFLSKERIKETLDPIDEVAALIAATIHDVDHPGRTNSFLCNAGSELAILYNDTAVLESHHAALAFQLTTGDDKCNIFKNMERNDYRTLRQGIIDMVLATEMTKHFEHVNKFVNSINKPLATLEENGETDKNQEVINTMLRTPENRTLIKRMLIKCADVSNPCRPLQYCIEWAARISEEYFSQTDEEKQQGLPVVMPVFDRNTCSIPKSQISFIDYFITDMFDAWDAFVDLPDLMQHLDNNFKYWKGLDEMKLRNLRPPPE
Sequence of beta-lactamase (P00811 20-377): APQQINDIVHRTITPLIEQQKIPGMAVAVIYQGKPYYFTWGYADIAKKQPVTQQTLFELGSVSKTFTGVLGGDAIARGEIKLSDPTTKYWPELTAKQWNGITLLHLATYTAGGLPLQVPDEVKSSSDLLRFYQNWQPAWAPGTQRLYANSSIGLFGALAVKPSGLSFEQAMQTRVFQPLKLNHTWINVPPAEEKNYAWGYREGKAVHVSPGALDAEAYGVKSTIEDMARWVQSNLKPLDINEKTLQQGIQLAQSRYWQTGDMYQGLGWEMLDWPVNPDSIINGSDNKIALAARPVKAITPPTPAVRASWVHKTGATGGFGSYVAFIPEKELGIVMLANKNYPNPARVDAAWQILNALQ

COc1cc2c(cc1OC)CN(C(=O)Cn1cnc3ccccc3c1=O)[C@H](C(=O)O)C2 (racemic) [Compound 7]
Hsp20 phosphorylation (serine 16) [1]: induced Hsp20 phosphorylation | IC50 [2]: 89 µM | cellular cAMP increase (FRET ratio change) over forskolin alone [3]: significantly enhanced

COc1cc2c(cc1OC)CN(C(=O)CCc1c[nH]c3ccccc13)[C@H](C(=O)O)C2 (racemic) [Compound 8]
Hsp20 phosphorylation (serine 16) [1]: induced Hsp20 phosphorylation | fold better IC50 than moexipril ([2]; PDE4B2): 7 fold | IC50 [2]: 6.9 µM | cellular cAMP increase (FRET ratio change) over forskolin alone [3]: significantly enhanced

CCCCCCOC(=O)[C@]1(O)C[C@@H]2O[C@@]1(C)n1c3ccccc3c3c4c(c5c6ccccc6n2c5c31)C(=O)NC4 [KT5720]
effect on Hsp20 phosphorylation induced by moexipril and forskolin ([1]; KT5720 4 μM 20 min before forskolin 10 μM with moexipril 50 μM, 5 min): attenuate

COc1ccc(C2CNC(=O)C2)cc1OC1CCCC1 (stereo not shown) [rolipram]
Hsp20 phosphorylation (serine 16) [1]: significantly increased

CCOC(=O)[C@H](CCc1ccccc1)N[C@@H](C)C(=O)N1Cc2cc(OC)c(OC)cc2C[C@H]1C(=O)O [moexipril]
activity against PDE8A [4]: no activity | Hsp20 phosphorylation (serine 16) [1]: significantly increased | activity against PDE5 [5]: no activity | IC50 ([6]; PDE4D5, n = 3): 230 µM | fold lower sensitivity to inhibition than PDE4B2 ([6]; PDE4D5 vs PDE4B2): 6 fold | colloidal aggregation [7]: no particles were observed | IC50 [2]: 38 µM | emetogenic activity [8]: apparently lacking emetogenic activity | inhibition of beta-lactamase [9]: did not inhibit | IC50 [10]: 0.04 µM | Cmax ([11]; conversion of 25 μg/L, read-out: Cmax): ~50 nM | Cmax ([11]; one PK assessment): 25 ng/mL | brain uptake [12]: poor uptake by the brain | cellular cAMP increase (FRET ratio change) over forskolin alone [3]: markedly potentiated; also recorded: significantly enhance

COc1ccc([C@]2(C#N)CC[C@@H](C(=O)O)CC2)cc1OC1CCCC1 [cilomilast]
brain penetration [12]: limited

COc1cc2c(cc1OC)CN(C(=O)[C@H](C)N[C@@H](CCc1ccccc1)C(=O)O)[C@H](C(=O)O)C2 [moexiprilat]
brain uptake [12]: poor uptake by the brain

Reference: article PMC3625111 (Biochemical Pharmacology, 2013)
